Converted amounts (≈) assume the structure as drawn.
Tests used:
[1] = cited from earlier work
[2] = cited from earlier work; remark: listed apart in the source
[3] = in vivo pharmacokinetics, plasma anastrozole by LC-MS/MS; design: species or system female Sprague-Dawley rats
Procedure: A 91-day pharmacokinetic study was conducted on female Sprague-Dawley rats (≧250 g). Test article animals were dosed by a single rod implantation, while positive drug control animals were dosed by a single injection of an ethanol:water (3:7, v/v) solution of equivalent dose. Prior to dosing, all animals were anesthetized by intraperitoneal injection of a cocktail containing ketamine HCl (75 mg/kg) and Xylazine HCl (5 mg/kg). Following anesthesia, the dorsal surface of all animals were shaved and prepared for aseptic administration by wiping with betadine and 70% isopropyl alcohol (3 times each). Animals were placed on a sterile surgical field and covered with Steridrape™. Dosing sites were closed with wound clips. The administration site was circled with indelible ink for future identification of location. Following dosing, all animals were placed in a warmed recovery area and observed until recovered from anesthesia and ambulatory. All animals were observed throughout dosing and each scheduled collection. Body weights were collected weekly in addition to the pre-dose body weight during the duration of the study. Serial blood samples were collected via tail vein or jugular vein at pre-dose, 2 h, 6 h, 24 h (1 d), 2 d, 4 d, 7 d, 10 d, 14 d, 21 d, 28 d, 35 d, 42 d, 49 d, 56 d, 63 d, 70 d, 77 d, 84 d and 91 d and analyzed via LC-MS/MS. Blood samples were stored on wet ice until processed to plasma by centrifugation within 30 min of collection. Plasma were stored at −80° C. until LC-MS/MS analysis.
Briefly, 150 μl of frozen in vivo sample or blank plasma (for double blank, blank and standards) was completely thawed and briefly centrifuged (2000 G, 3 min, 4° C.). […] For extraction, 1 ml diethyl ether:dichloromethane (7:3, v/v) was added to 25 μl of plasma (blank, standard or sample) and 10 μl of aqueous internal standard (100 ng/ml Chlorpheniramine) or deionized water (for double blank) in a glass centrifuge tube using glass serological pipettes and vortexed for 40 s. […]
The auto-sampler of the LC system was kept at 5° C. […] The limit of quantitation (LOQ) was 0.6 ng/ml.

[4] = cited from earlier work; remark: listed apart in the source
[5] = stability of anastrozole under in vitro release conditions (LC-MS/MS); conditions: deionized water, 0.02 wt. % NaN3, 37° C., longest inter-sampling duration 1 week
Procedure: The release volume was determined to ensure perfect sink conditions in case of a complete burst release according to:
where V, L and S are the release volume, drug loading and aqueous solubility, respectively. At pre-determined time points, 1 ml of the release medium was sampled. After each sampling, the whole medium was exchanged with fresh buffer.

[6] = effective steady state diffusion coefficient from cylindrical silk reservoir; type: physicochemical; conditions: anastrozole diffusion in silk reservoir rods
Text: and different effective length, le values of 10 or 30 mm.

[7] = cited from earlier work; remark: listed apart in the source

half-life ([3]; female, Sprague-Dawley, rat, plasma, sc, single s.c. injection of solution, high and low dose, read-out: apparent terminal elimination half-life (converted)): ~6 h
time of peak plasma concentration ([3]; single s.c. injection of solution (water:ethanol 7:3), high (14 mg) and low (5.8 mg) dose): 6 h
time to decline to background plasma levels ([3]; single s.c. injection of solution, high and low dose): ≤ 96 h
degradation of Anastrozole under release conditions [5]: No significant degradation
effective steady state diffusion coefficient De [6]: 2.4×10^−8 cm^2/s
SMILES: CC(C)(C#N)c1cc(Cn2cncn2)cc(C(C)(C)C#N)c1 [anastrozole]
water solubility ([1]; at 25° C.): 500 µg/mL (≈ 1700 µM)
aqueous solubility Cs of anastrozole in water ([1]; value used in diffusion equation): 5000 µg/mL
log P(octanol/water) [2]: 1.58
terminal elimination half-life t1/2 ([4]; Product Monograph value): 50 h
volume of distribution V ([4]; Product Monograph value): 74 L
steady state plasma concentration Css ([4]; factors in reported accumulation): 25 ng/mL
pKa [7]: 1.4
